Experimental data published in article PMC7407491, “The Addition of a Synthetic LPS-Targeting Domain Improves Serum Stability While Maintaining Antimicrobial, Antibiofilm, and Cell Stimulating Properties of an Antimicrobial Peptide” (Biomolecules, 2020).
Bridge positions count the residues as written; N and C are the ends. Peptide text beside a SMILES is read from it.

Experiments:
[1] = tested on: MRSA; type: cell-based, Methicillin-resistant Staphylococcus aureus; conditions: 2 h, pH 7
Experimental: (§1) Veterinary clinical isolates, including Salmonella typhimurium, multi-drug resistant Escherichia coli, methicillin-resistant Staphylococcus aureus (MRSA), and methicillin-resistant Staphylococcus pseudointermedius (MRSP), were kindly provided by Dr. H. Cai (Department of Pathobiology, University of Guelph, ON, Canada). An antibiogram for these strains is available in the supplementary text (Table S1). Gram-negative strains were cultured in Luria−Bertani (LB) broth. Gram-positive strains were cultured in Tryptic soy broth (TSB). Both cultures were grown under aerobic conditions at 37 °C.
(§2) The minimum bactericidal concentration (MBC) of SynPG-1 against the tested pathogens was identified through a broth macrodilution antimicrobial assay as previously described, with some modification. […] The buffer volume was adjusted to accommodate the addition of SynPG-1 and PG-1 so that the final solution volume was 0.5 mL for each tested concentration. Final peptide concentrations ranged from 0.1 µg/mL to 8 µg/mL. PG-1 at the known MBC (2 µg/mL E. coli; 4 µg/mL S. typhimurium; 0.5 µg/mL MRSP; 0.5 µg/mL MRSA) was considered the in-house positive control, while the suspension containing no peptide was considered the negative control. Experimental and control tubes were incubated for 2 h at 37 °C without shaking to allow for bactericidal action to occur. […] Colony numbers from each plate were recorded. […]

[2] = tested on: MRSP; type: cell-based, Methicillin-resistant Staphylococcus pseudointermedius; conditions: 2 h, pH 7
Experimental: as §1, §2

[3] = Activity after incubation in serum (functional serum stability); type: in vitro ADME, pig
Experimental: To compare serum stability, a similar procedure was utilized, as described in Dong et al., with some modification. Briefly, a solution of 25% pig serum was made by diluting fresh pig serum with phosphate buffer saline (PBS). […] Suspension containing no peptide was considered the negative control. Experimental and control tubes were incubated for up to 7 or 24 h in 37 °C to allow for serum constituent interaction with the peptide. […] Experimental and control tubes were incubated for 2 h at 37 °C without shaking to allow for bactericidal action to occur. […] This experiment was carried out three independent times. […] On the other hand, SynPG-1 maintained strong antimicrobial activity even after 24 h of incubation in serum, indicated through a consistently low mean % growth, as compared to the controls seen in Figure 2b. […] All experiments were conducted three independent times. […] Data represent the mean ± SEM of three experiments. The asterisk represents p < 0.05 when compared with SynPG-1 by two-way ANOVA with a post hoc Tukey test.

[4] = tested on: MRSA biofilm; test: Biofilm inhibition assay, crystal violet; type: cell-based, Methicillin-resistant Staphylococcus aureus; conditions: minimal salt media, 48 h 37 °C static, crystal violet OD 590 nm; p < 0.05 vs control; concentration dependent
Experimental: Plates were placed in a static incubator at 37 °C for 48 h; the time required for untreated wells to form biofilm. After incubation, treated media was removed and wells were rinsed with 155 µL of PBS to remove planktonic cells. After sufficient air drying of wells, 150 µL of 0.1% Crystal violet stain was added to each well and incubated at room temperature for 30 min, after which, dye was removed and wells were rinsed again with 155 µL of PBS. After sufficient drying of wells, 150 µL of 70% ethanol solution was added to each well and incubated at room temperature for 30 min. After 30 min, 100 µL of each well was added to a new 96-well plate and absorbance was measured at an OD of 590 nm.

[5] = tested on: S. typhimurium biofilm; test: Enumeration of viable cells after biofilm inhibition; type: cell-based, Salmonella typhimurium; conditions: 4 µg/mL, 48 h biofilm formation, CFU plated
Experimental: In order to investigate whether prevention or degradation of biofilm by peptide treatment impacted bacterial cell growth within the biofilm, an enumeration assay was carried out. The following protocol was developed using methods described in the work by Wilson et al.. Briefly, in separate 15 mL culture tubes, 20 µL of overnight culture of either E. coli, S. typhimurium, or MRSA were added to 1 mL of minimal salt media (40 mM […]; 22 mM KH2PO4; […] NH4CL; 740 mM NaCl; 2 mM MgSO4; 0.1 mM CaCl2; 22 mM supplemented with D-Glucose) and treated with PG-1 or SynPG-1. Due to the laborious procedure, the study was limited to measuring cell viability for only two concentrations, basing the choice on the highest significant reduction of biomass from crystal violet staining for each strain. […] These concentrations were chosen for the enumeration assay. In instances where no substantial reduction was seen, as in the case of E. coli, the highest tested biomass concentration, or higher, was chosen to confirm the lack of activity on viability. […] Tubes were placed in a static incubator at 37 °C for 48 h; the time required for untreated wells to form biofilm. After 48 h, treated media was removed and wells were rinsed with 1 mL of PBS to remove planktonic cells. […] CFU was recorded. […]

[6] = 25% porcine intestinal fluid (pH 6.5) in PBS, 1 mg/mL peptide, 1 h 37 °C with shaking; residual activity vs E. coli at 20 µg/mL, colony count; three independent experiments
Experimental: Porcine digestive fluids were collected, as previously described by Wang et al. [44]. […] The gastrointestinal tract was kept at 4 °C during dissection, and collection of contents from the stomach and upper small intestine (duodenum and jejunum) was conducted within 5 h of sacrifice. Contents were centrifuged at 10,000 rpm (9600× g) for 10 min at 4 °C, and supernatant fluid was collected and stored at −80 °C until its use in the stability experiment. The pH of the collected supernatants were 3.5 and 6.5 for gastric fluid and duodenum fluid, respectively.
Procedures similar to those used by Egger et al. [45] were used for this experiment. […] Suspension containing no peptide was considered the negative control. After incubation, 10 µL of the incubated solutions was added for a total volume of 0.5 mL, consisting of 20 µL of mid-logarithmic phase E. coli cells, diluted to a concentration of about 1 × 10^5 CFU/mL, and 470 µL of 20 mM sodium phosphate buffer (pH 7). […] Stability in porcine digestive fluid was evaluated as the relative colony growth on plates from bacterial grown with digestive fluid and peptide treatments, in comparison to plates grown from bacteria grown with digestive fluid alone.
Stability was evaluated by comparing the mean growth of colonies on plates treated with peptides incubated in digestive fluids to colonies grown when treated without peptide. […]

CC[C@H](C)[C@H](NC(=O)[C@H](CCCCN)NC(=O)[C@H](CCCNC(=N)N)NC(=O)[C@H](CC(C)C)NC(=O)[C@H](CC(C)C)NC(=O)[C@H](CCCNC(=N)N)NC(=O)[C@H](CCCNC(=N)N)NC(=O)[C@H](CC(C)C)NC(=O)CN)C(=O)N[C@@H](CCCNC(=N)N)C(=O)NCC(=O)N[C@@H](CCCNC(=N)N)C(=O)N[C@@H](Cc1c[nH]c2ccccc12)C(=O)N[C@@H](CCCCN)C(=O)NCC(=O)NCC(=O)NCC(=O)N[C@@H](CCCNC(=N)N)C(=O)NCC(=O)NCC(=O)N[C@@H](CCCNC(=N)N)C(=O)N[C@@H](CC(C)C)C(=O)N[C@H]1CSSC[C@@H](C(=O)N[C@H](C(=O)NCC(=O)N[C@@H](CCCNC(=N)N)C(=O)O)C(C)C)NC(=O)[C@H](C(C)C)NC(=O)[C@@H]2CSSC[C@H](NC(=O)[C@H](Cc3ccc(O)cc3)NC1=O)C(=O)N[C@@H](CCCNC(=N)N)C(=O)N[C@@H](CCCNC(=N)N)C(=O)N[C@@H](CCCNC(=N)N)C(=O)N[C@@H](Cc1ccccc1)C(=O)N2 [SynPG-1, Syn-Protegrin-1] (H-GLRRLLRKIRGRWKGGGRGGRLCYCRRRFCVCVGR-OH; disulfide 23-32, 25-30; N-terminus and C-terminus assumed)
MBC [1]: 0.5 (0.09) μg/mL | MBC [2]: 0.5 (0.09) μg/mL | Time of incubation in 25% serum for which antimicrobial activity is maintained [3]: ≤ 24 h | Increase in stability in 25% serum versus PG-1 ([3]; 24 h versus 2 h of retained activity in 25% serum): 12 fold | Concentration at which inhibition of biofilm formation was seen [4]: 2 µg/mL | Reduction of mean % growth of control compared with PG-1 [5]: significantly lower reduction of mean % growth of control | Antimicrobial activity after incubation in 25% porcine intestinal fluid [6]: mean % growth of control increased
